Data on 26 molecules can be found in US20020028940A1, “Indolyl-substituted phenylacetic acid derivatives” (priority 1995, published 2002).

As usually defined, the IC50 is the concentration needed to halve the response being measured. Read a low IC50 as higher potency. The term melting point denotes the temperature, or range, at which the solid turns liquid.

In data set [1] the test system is ApoB-100-associated lipoproteins. In words: Inhibition of the release of ApoB-100-associated lipoproteins from hepatic cells (HepG2), LDL immunoassay. The class given is cell-based, human. The settings on record: concentration at which adsorption of light (450 nm) is inhibited by 50% compared with solvent control. Here is the method: 1. Inhibition of the release of ApoB-100-associated lipoproteins
The test for detection of the inhibition of the release of ApoB-100-associated lipoproteins from hepatic cells was carried out in vitro with cultured hepatic cells, preferably with cells of the human line HepG2. These cells are cultured under standard conditions in medium for culture of eukaryotic cells, preferably in RPM 1640 with 10% foetal calf serum. HepG2 cells synthesize and secrete into the culture supernatant ApoB-100-associated lipoprotein particles, which are in principle built up similarly to the VLDL and LDL particles which are to be found in plasma.
These particles can be detected with an immunoassay for human LDL. This immunoassay is carried out with antibodies which have been induced against human LDL in rabbits under standard conditions. The anti-LDL antibodies (rab-anti-LDL-Ab) were purified by affinity chromatography on an immunosorbent with human LDL. These purified rab-anti-LDL-Ab are adsorbed onto the surface of plastic. This adsorption is expediently carried out on the plastic surface of microtiter plates with 96 wells, preferably on MaxiSorp plates. If ApoB-100-associated particles are present in the supernatant of Hep-G2 cells, these can then bond to the insolubilized rab-anti-LDL-Ab, and an immune complex bonded to the plastic surface is formed. Non-bonded proteins are removed by washing. The immune complex on the plastic surface is detected with monoclonal antibodies, which have been induced against human LDL and purified under standard conditions. These antibodies were conjugated with the enzyme peroxidase. Peroxidase converts the colourless substrate TMB into a coloured product in the presence of H2O2. After acidification of the reaction mixture with H2SO4, the specific adsorption of light is determined at 450 nm, this being a measure of the amount of ApoB-100-associated particles which had been secreted by the HepG2 cells into the culture supernatant.
The IC50 value indicates the concentration of substance at which the adsorption of light is inhibited by 50% compared with the control (solvent control without the substance).

Data set [2] concerns intestinal triglyceride absorption. In words: Inhibition of intestinal triglyceride absorption in vivo (rats). More on the design: species or system male Wistar rats. Conditions: fasting rats, postprandial serum triglyceride increase after tragacanth-olive oil loading. Here is the method: 3. Inhibition of intestinal triglyceride absorption in vivo (rats)
The substances which are to be investigated in vivo for their inhibiting action on triglyceride absorption are administered orally to male Wistar rats having a body weight of between 170 and 230 g. For this purpose, the animals are divided into groups of 6 animals 18 hours before administration of the substance, and their food is then withdrawn. Drinking water is available to the animals ad libitum. The animals of the control groups are given an aqueous tragacanth suspension or a tragacanth suspension which comprises olive oil. The tragacanth-olive oil suspension is prepared with an Ultra-Turrax. The substances to be investigated are suspended in a corresponding tragacanth-olive oil suspension, likewise with an Ultra-Turrax, directly before administration of the substance.
Before administration by a stomach tube, blood is taken from each rat by puncture of the retroorbital venous plexus for determination of the basal serum triglyceride content. The tragacanth suspension, the tragacanth-olive oil suspensions without a substance (control animals) or the substances, suspended in a corresponding tragacanth-olive oil suspension, are then administered to the fasting animals using a stomach tube. Further blood for determination of the postprandial serum triglyceride increase is as a rule taken 1, 2 and 3 hours after the administration by a stomach tube.
The blood samples are centrifuged and, after isolation of the serum, the triglycerides are determined photometrically with an EPOS-Analyzer 5060 (Eppendorf Gerätebau, Netheler & Hinz GmbH, Hamburg). The triglycerides are determined completely enzymatically with a commercially available UV test.
The postprandial increase in serum triglycerides is determined by subtraction of the triglyceride prevalue of each animal from its corresponding postprandial triglyceride concentrations (1, 2 and 3 hours after administration).
The average is taken of the differences (in mmol/l) at each point in time (1, 2 and 3 hours) in the groups, and the means of the increase in serum triglycerides (ΔTG) of the animals treated with the substance are compared with the animals which received only the tragacanth-oil suspension.
The course of the serum triglycerides in the control animals, which were given only tragacanth, is also calculated. The effect of the substance at each point in time (1, 2 or 3 hours) is determined as follows and stated in Δ% of the oil-loaded control. [formula]
Effect of 10 mg of test substance/kg of body weight p.o. on the increase in triglycerides (Δ%) 2 hours after a triglyceride loading in the serum of fasting rats. The increase in serum triglycerides of fat-loaded control animals, based on the serum triglycerides level of tragacanth control animals, corresponds to 100%. n=6 animals per group.
The statistical analysis is carried out with the Student t-test after first checking the variances for homogeneity.

Where two headings read alike, the source gives them in different places.

In the case of `Cc1c(C)n(Cc2ccc(C(C(=O)NC(CO)c3ccccc3)C3CCCC3)cc2)c2ccccc12` (mixture of isomers) [Example 5], in data set [1], the half-inhibitory concentration (IC50) turned out to be 83.2 nM.
With `CCOC(=O)c1cc2ccccc2n1Cc1ccc(C(C(=O)NC(CO)c2ccccc2)C2CCCC2)cc1` (mixture of isomers) [Example 17], in data set [1], the IC50 is 38.1 nM.
`O=C(NC(CO)c1ccccc1)C(c1ccc(Cn2c(-c3ccccc3)cc3ccccc32)cc1)C1CCCC1` (single isomer, unassigned) [Example 15] gave an IC50 in data set [1] of 47.3 nM.
On to `CCOC(=O)c1cc2cc(Cl)ccc2n1Cc1ccc(C(C(=O)NC(CO)c2ccccc2)C2CCCC2)cc1` (single isomer, unassigned) [Example 28], for which 62.6 nM corresponded to half-maximal inhibition in data set [1] (IC50).
`O=C(NC(CO)c1ccccc1)C(c1ccc(Cn2c(-c3ccccc3)cc3ccccc32)cc1)C1CCCC1` (single isomer, unassigned) [Example 14] returned an IC50 in data set [1] of 474 nM.
`O=C(NC(CO)c1ccccc1)C(c1ccc(Cn2ccc3ccc(Cl)cc32)cc1)C1CCCC1` (single isomer, unassigned) [Example 34] displayed an ED50 in data set [2] (p.o.) of 2 mg/kg. In addition, the concentration for half-maximal inhibition (IC50) in data set [1] is 12.3 nM.
Regarding `Cc1cn(Cc2ccc(C(C(=O)NC(CO)c3ccccc3)C3CCCCCC3)cc2)c2ccccc12` (mixture of isomers) [Example 29], the ED50 in data set [2] (p.o.) is on record as 3 mg/kg. The half-inhibitory concentration (IC50) in data set [1] was 40.5 nM.
On the same counts, the results for `Cc1cc2ccccc2n1Cc1ccc(C(C(=O)NC(CO)c2ccccc2)C2CCCCCC2)cc1` (mixture of isomers) [Example 4] are below 10 mg/kg and 40.5 nM.
For `CCOC(=O)c1cc2cc(Cl)ccc2n1Cc1ccc(C(C(=O)NC(CO)c2ccccc2)C2CCCC2)cc1` (single isomer, unassigned) [Example 27], the ED50 in data set [2] (p.o.) is above 2 mg/kg. This molecule yielded an IC50 in data set [1] of 6.5 nM.
As for `COc1cccc2c1ccn2Cc1ccc(C(C(=O)NC(CO)c2ccccc2)C2CCCC2)cc1` (single isomer, unassigned) [Example 37], the ED50 in data set [2] (p.o.) was above 2 mg/kg. In addition, in data set [1], the half-inhibitory concentration (IC50) worked out at 31.1 nM.
Take `O=C(NC(CO)c1ccccc1)C(c1ccc(Cn2ccc3ccc(Cl)cc32)cc1)C1CCCC1` (mixture of isomers) [Example 33]: the IC50 in data set [1] was 41.1 nM.
Still for that read-out and setting: with `O=C(NC(CO)c1ccccc1)C(c1ccc(Cn2ccc3ccc(Cl)cc32)cc1)C1CCCC1` (single isomer, unassigned) [Example 35] the figure was 308 nM; with `CCOC(=O)c1cc2ccccc2n1Cc1ccc(C(C(=O)NC(CO)c2ccccc2)C2CCCCCC2)cc1` (single isomer, unassigned) [Example 22], 23.5 nM.
Take `O=C(NC(CO)c1ccccc1)C(c1ccc(Cn2c(-c3ccccc3)cc3ccccc32)cc1)C1CCCCCC1` (mixture of isomers) [Example 16]: in data set [2] (p.o.), the ED50 is above 2 mg/kg. Also, it took 35.9 nM to reach half-maximal inhibition in data set [1] (IC50).
Molecule `Cc1c(C)n(Cc2ccc(C(C(=O)NC(CO)c3ccccc3)C3CCCC3)cc2)c2ccccc12` (single isomer, unassigned) [Example 6] yielded an IC50 in data set [1] of 37.4 nM.
In data set [1], `COc1cccc2c1ccn2Cc1ccc(C(C(=O)NC(CO)c2ccccc2)C2CCCC2)cc1` (single isomer, unassigned) [Example 38] registered a concentration for half-maximal inhibition (IC50) of 270 nM.
With `CCOC(=O)c1cc2ccccc2n1Cc1ccc(C(C(=O)NC(CO)c2ccccc2)C2CCCCCC2)cc1` (single isomer, unassigned) [Example 21], the ED50 in data set [2] (p.o.) is listed as >>6 mg/kg. Half-maximal inhibition in data set [1] (IC50) was put at 4.5 nM.
As for `Cc1c(C)n(Cc2ccc(C(C(=O)NC(CO)c3ccccc3)C3CCCC3)cc2)c2ccccc12` (single isomer, unassigned) [Example 7], the IC50 in data set [1] came to 229 nM.
The molecule `COc1cccc2c1ccn2Cc1ccc(C(C(=O)NC(CO)c2ccccc2)C2CCCC2)cc1` (mixture of isomers) [Example 36] gave an IC50 in data set [1] of 72.5 nM.
`Cc1c(C)n(Cc2ccc(C(C(=O)N[C@@H](CO)c3ccccc3)C3CCCCCC3)cc2)c2ccccc12` (stereo partly drawn) [Example 2, 2-Cycloheptyl-N-(2-hydroxy-1-(R)-phenylethyl)-2-[4-(2,3-dimethylindol-1-yl-methyl)phenyl]acetamide] returned a melting point of 163 °C. For the same molecule, in data set [2] (Rattus norvegicus, po, read-out: TG absorption ED50 or % inhibition mg/kg/p.o.), the ED50 was below 3 mg/kg. Besides, half-maximal inhibition in data set [1] (Homo sapiens) (IC50) required 29.5 nM.
`CCOC(=O)c1cc2cc(Cl)ccc2n1Cc1ccc(C(C(=O)NC(CO)c2ccccc2)C2CCCC2)cc1` (mixture of isomers) [Example 26] had a concentration for half-maximal inhibition (IC50) in data set [1] of 26.8 nM.
`O=C(NC(CO)c1ccccc1)C(c1ccc(Cn2ccc3cc(Cl)ccc32)cc1)C1CCCCCC1` (mixture of isomers) [Example 32] displayed a half-inhibitory concentration (IC50) in data set [1] of 48.5 nM.
Still for that read-out and setting: the result for `Cc1cccc2ccn(Cc3ccc(C(C(=O)NC(CO)c4ccccc4)C4CCCC4)cc3)c12` (mixture of isomers) [Example 31] reads 428 nM; that for `Cc1c(C)n(Cc2ccc(C(C(=O)NC(CO)c3ccccc3)C3CCCCC3)cc2)c2ccccc12` (mixture of isomers) [Example 8], 50.5 nM.
On to `CCOC(=O)c1cc2ccccc2n1Cc1ccc(C(C(=O)NC(CO)c2ccccc2)C2CCCCCC2)cc1` (mixture of isomers) [Example 20], for which the ED50 in data set [2] (p.o.) is >>10 mg/kg. In data set [1], the half-inhibitory concentration (IC50) worked out at 8.1 nM.
On the same counts, the results for `CCOC(=O)c1cc2cc(OC)ccc2n1Cc1ccc(C(C(=O)NC(CO)c2ccccc2)C2CCCC2)cc1` (mixture of isomers) [Example 23] are 2 mg/kg and 36.1 nM.
